Experimental data taken from patent US6586443B1, “Method of treating multiple sclerosis” (priority 1986, dated 2003).

Experiments:
[1] = recent press reports; cited from earlier work
[2] = case report: low dose naltrexone in multiple sclerosis; format: in vivo, human; conditions: person
Description: This gradually cleared over a two month period. […] This gradually cleared. An attack of transverse myelitis at the lower thoracic level occurred four months later, their third attack in eight months. As they were recovering from this attack, they started on naltrexone, 1.75 mg per day at bedtime. […] This attack involved weakness and numbness of the left arm.

[3] = test system: genital herpes (herpes simplex virus (HSV) type No. 2); assay: case report: low dose naltrexone in chronic genital herpes; format: in vivo, human
Description: A person has had genital herpes for 13 years, experiencing a severe painful attack with several lesions for the 4-5 days preceding each menstrual period during most of that time. They were started on low dose naltrexone (1.75 mg per day at bedtime). […] Ten months later the dosage was increased to 2.75 mg/day also taken at bedtime. In the entire period of naltrexone treatment covering a number of months, they have had only two attacks each occurring 2-3 weeks after they ran out of naltrexone and interrupted the treatment temporarily.

[4] = test system: Mu and Delta opiate receptor sites; conditions: generally rated; cited from earlier work

Row | SMILES | effectiveness in treating CFS compared with placebo [1] | multiple sclerosis attacks after start of naltrexone ([2]; 1.75 mg per day at bedtime, three attacks in eight months before treatment) | multiple sclerosis attacks after resuming naltrexone ([2]; low dose naltrexone resumed after voluntary discontinuation) | number of genital herpes attacks in the entire period of naltrexone treatment ([3]; 1.75 then 2.75 mg/day at bedtime, each attack 2-3 weeks after treatment was temporarily interrupted) | effect on genital herpes attacks after start of treatment ([3]; person, 1.75 mg per day at bedtime, oral) | Mu blocking action relative to Delta blocking action [4]
1 | Nc1nc2c(ncn2COCCO)c(=O)[nH]1 [acyclovir] | no more effective than a placebo | – | – | – | – | –
2 | O=C1CC[C@@]2(O)[C@H]3Cc4ccc(O)c5c4[C@@]2(CCN3CC2CC2)[C@H]1O5 [naltrexone] | – | only subsequent attack in the intervening period of many months occurred one year later, three weeks after they voluntarily discontinued naltrexone | no attacks since | two | attacks immediately stopped | about ten
